From US20250197794A1, “MEMBRANE RUPTURE COMPOSITIONS AND METHODS OF MAKING AND USING SAME” (priority 2020, published 2025)

How the values were obtained:
[1] = test system: HEK 293 cells; conditions: HEK 293, 1 hour incubation
[2] = reference [6]; cited from earlier work
[3] = test system: SF9 cells; test: Cell lysis, percent cell viability by Vi-Cell (trypan blue exclusion); format: cell-based, insect; conditions: SF9, 1 hour incubation
Method: The cell rupture solution was tested both for HEK 293 and SF9 cell lines. The cell concentration was >5×10^6 cells/ml. A cell harvest in cell culture media was spiked with the concentrated stock of cell rupture solution to reach a final cell rupture solution concentration ranging from 0% to 0.5% and was incubated for about 5 minutes to about 1 hour at 15° C. to 30° C. The concentration of the stock solution could be 1-500-fold higher than the target concentration. After the incubation period, cell viability of cells was analyzed by a Vi-Cell reader.
SF9 cells for the study were grown in SF-900 II SFM (Invitrogen/Gibco 10902) media in a non-vented non-baffled shake flask. The incubator was set at 27° C. and 125 rpm.
For the cell lysis study, 2 mL of cells were added to each of 10×15 mL tubes under a sterile biosafety cabinet. Each tube was spiked with 0% (control, no detergent), 0.0025%, 0.005%, 0.0075%, 0.01%, 0.02%, 0.05%, 0.1%, 0.25%, and 0.5% of cell rupture solution using a concentrated stock. Cell counts and percent cell viability were determined at 15 min, 30 min, and 1 hour time points for each sample using the ViCell cell viability analyzer.
Cell viability was assessed by a Vi-Cell XR using trypan blue exclusion staining. […]

For Octoxynol-9 [Triton X-100], the “detergent concentration at which cell lysis was complete” value [1] is listed as 0.05%, the “toxicity reported by research” value [2] is listed as “acute oral toxicity, eye damage, skin irritation, and chronic aquatic toxicity” and the “detergent concentration at which cell lysis was complete” value [3] is listed as 0.05%.
